In patent US20240425479A1, “HALO-SUBSTITUTED AMINO AZA-HETEROARYL COMPOUNDS AS INHIBITORS OF THE HAEMATOPOIETIC PROGENITOR KINASE 1 (HPK1)” (priority 2021, published 2024):

Molecular target: T1, Recombinant (1-346) HPK1 (h) (Homo sapiens, UniProt Q92918)
T1 construct: Recombinant (1-346) HPK1 (h) is incubated with 8 mM MOPS pH 7.0
T1 sequence (Q92918 1-346): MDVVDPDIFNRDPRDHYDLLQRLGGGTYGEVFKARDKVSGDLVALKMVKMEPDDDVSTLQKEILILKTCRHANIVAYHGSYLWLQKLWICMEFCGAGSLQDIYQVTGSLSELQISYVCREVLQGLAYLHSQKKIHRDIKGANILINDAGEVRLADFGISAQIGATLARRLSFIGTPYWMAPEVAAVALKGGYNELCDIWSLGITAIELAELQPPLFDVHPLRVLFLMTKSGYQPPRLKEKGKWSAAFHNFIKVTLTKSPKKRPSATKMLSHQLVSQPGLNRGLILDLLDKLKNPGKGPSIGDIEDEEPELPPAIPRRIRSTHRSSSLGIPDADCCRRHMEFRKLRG
Assay: HPK1 human STE kinase enzymatic radiometric assay
Assay type: biochemical
Conditions: read-out: HPK1 IC50 nM Range
In short: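 Recombinant HPK1 (1-346) incubated 40 min at RT with 0.33 mg/mL myelin basic protein and [gamma-33P]-ATP in 8 mM MOPS pH 7.0, 0.2 mM EDTA, 10 mM Mg acetate; reaction started with Mg/ATP. Stopped with 0.5% phosphoric acid, spotted on P30 filtermat, washed, scintillation counted. Compounds tested as 9-point 3-fold dilutions.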

For CN(C)[C@@H]1CCOc2ccc(-c3nc(-c4ccc5c(=O)[nH]ccc5c4)c(N)nc3F)cc21 [Example I-286, (R)-6-(3-amino-6-(4-(dimethylamino)chroman-6-yl)-5-fluoropyrazin-2-yl)isoquinolin-1(2H)-one], the IC50 was 11 to 100 nM.
Compound CN(C)[C@@H]1CCOc2ccc(-c3nc(-c4ccc5c(c4)CCNC5=O)c(N)nc3F)cc21 [Example I-287, (R)-6-(3-amino-6-(4-(dimethylamino)chroman-6-yl)-5-fluoropyrazin-2-yl)-3,4-dihydroisoquinolin-1(2H)-one] has an IC50 of 0.1 to 10 nM.
Work on CN(C)[C@@H]1CCOc2ccc(-c3nc(-c4cc5c(cc4F)C(=O)NCC5)c(N)nc3F)cc21 [Example I-288, (R)-6-(3-amino-6-(4-(dimethylamino)chroman-6-yl)-5-fluoropyrazin-2-yl)-7-fluoro-3,4-dihydroisoquinolin-1(2H)-one] yielded an IC50 of 11 to 100 nM.
With CN(C)[C@@H]1CCOc2ccc(-c3nc(-c4cc(F)c5c(c4)CCNC5=O)c(N)nc3F)cc21 [Example I-289, (R)-6-(3-amino-6-(4-(dimethylamino)chroman-6-yl)-5-fluoropyrazin-2-yl)-8-fluoro-3,4-dihydroisoquinolin-1(2H)-one] the IC50 was 11 to 100 nM.
In the case of COc1ccc(-c2nc(-c3ccc4c(c3)CCNC4=O)c(N)nc2F)cc1C(C)N(C)C (stereo not shown) [Example I-290, 6-(3-amino-6-(3-(1-(dimethylamino)ethyl)-4-methoxyphenyl)-5-fluoropyrazin-2-yl)-3,4-dihydroisoquinolin-1(2H)-one], the IC50 is reported as 0.1 to 10 nM.
In the case of COc1ccc(-c2nc(-c3ccc4c(=O)[nH]cc(F)c4c3)c(N)nc2F)cc1C(C)N(C)C (stereo not shown) [Example I-291, 6-(3-amino-6-(3-(1-(dimethylamino)ethyl)-4-methoxyphenyl)-5-fluoropyrazin-2-yl)-4-fluoroisoquinolin-1(2H)-one], the IC50 is reported as 0.1 to 10 nM.
Compound COc1ccc(-c2nc(-c3ccc4c(c3)CCNC4=O)c(N)nc2F)cc1C#N [Example I-292, 5-(5-amino-3-fluoro-6-(1-oxo-1,2,3,4-tetrahydroisoquinolin-6-yl)pyrazin-2-yl)-2-methoxybenzonitrile] has an IC50 of 11 to 100 nM.
Cc1cc(-c2nc(-c3ccc4c(c3)CCNC4=O)c(N)nc2F)cc2c1CCN(C)C2 [Example I-294, 6-(3-amino-6-(2,5-dimethyl-1,2,3,4-tetrahydroisoquinolin-7-yl)-5-fluoropyrazin-2-yl)-3,4-dihydroisoquinolin-1(2H)-one] showed an IC50 of 0.1 to 10 nM.
In the case of Cc1cc(-c2nc(-c3ccc4c(=O)[nH]cc(C)c4c3)c(N)nc2F)cc2c1CCN(C)C2 [Example I-295, 6-(3-amino-6-(2,5-dimethyl-1,2,3,4-tetrahydroisoquinolin-7-yl)-5-fluoropyrazin-2-yl)-4-methylisoquinolin-1(2H)-one], the IC50 is reported as 11 to 100 nM.
Cc1cc(-c2nc(-c3ccc4c(=O)[nH]cc(F)c4c3)c(N)nc2F)cc2c1CCN(C)C2 [Example I-296, 6-(3-amino-6-(2,5-dimethyl-1,2,3,4-tetrahydroisoquinolin-7-yl)-5-fluoropyrazin-2-yl)-4-fluoroisoquinolin-1(2H)-one] showed an IC50 of 0.1 to 10 nM.
With CCN(C)Cc1cc(-c2nc(-c3ccc4c(c3)CCNC4=O)c(N)nc2F)cc(C)c1OC [Example I-297, 6-(3-amino-6-(3-((ethyl(methyl)amino)methyl)-4-methoxy-5-methylphenyl)-5-fluoropyrazin-2-yl)-3,4-dihydroisoquinolin-1(2H)-one] the IC50 was 11 to 100 nM.
CCN(C)Cc1cc(-c2nc(-c3ccc4c(=O)[nH]cc(F)c4c3)c(N)nc2F)cc(C)c1OC [Example I-298, 6-(3-amino-6-(3-((ethyl(methyl)amino)methyl)-4-methoxy-5-methylphenyl)-5-fluoropyrazin-2-yl)-4-fluoroisoquinolin-1(2H)-one] was tested, and the IC50 was 11 to 100 nM.
CCN(C)Cc1cc(-c2nc(-c3ccc4c(=O)[nH]cc(C)c4c3)c(N)nc2F)cc(C)c1OC [Example I-299, 6-(3-amino-6-(3-((ethyl(methyl)amino)methyl)-4-methoxy-5-methylphenyl)-5-fluoropyrazin-2-yl)-4-methylisoquinolin-1(2H)-one] showed an IC50 of 11 to 100 nM.
